Laboratory results from US20230390315A1, “COMPOSITIONS AND METHODS FOR TREATING ISCHEMIC CONDITIONS” (The Regents of the University of California, priority 2020, published 2023).

What was measured:
[1] = system: U87MG; assay: U87MG proliferation assay; type: cell-based, human
Procedure: (§1) Proliferation assays with fibroblasts were done in low-glucose DMEM containing 1% FBS, with or without 10 ng/ml bFGF, or 100 ng/ml human EGF and the assay was ended at day 3. ARPE-19 cells were gently lifted with 0.025% trypsin and plated in RtEGM media (Clonetics) containing 2% FBS, L-glutamine, human bFGF and GA-1000. Once cells were attached to plates, serum-free RtEGM media was used to maintain the cultures. For proliferation assays, 1500 human RPE cells were plated into 96-well plates in low-glucose DMEM containing 1% FBS. A673, U87MG, Calu6 and AML12 cells were grown until confluent and were then harvested and re-suspended in appropriate assay media. For proliferation assays, cells were plated at the density of 1000-2000 cells/well in low-glucose DMEM containing 5% FBS or otherwise stated. Bovine pituitary cells (pituitary folliculostellate cells) were isolated as previously described. For proliferation assays with human epidermal keratinocytes, human DMVECs and human dermal fibroblast cells, 1000 cells/well were plated in low-glucose DMEM containing 1% FBS with or without various growth factors. The assay was ended at day 3 for bovine pituitary cells and at day 4 for all the other cell types. […] Four days later, tumor cell growth was measured by the MTS assay (Promega, Madison, WI), a colorimetric assay that measures metabolic activity of viable cells. […]

[2] = system: bovine pituitary cells; assay: Bovine pituitary cell proliferation assay; type: cell-based; details: alone or in combination with growth factors
Procedure: as §1

[3] = system: A673; assay: A673 proliferation assay; type: cell-based, human
Procedure: as §1

[4] = system: 4T1 cells; assay: 4T1 proliferation assay (MTS); type: cell-based, mouse
[5] = system: VEGFR2; assay: VEGF/VEGFR2 expression, cell surface amount and VEGFR2 activation in BCECs; type: cell-based, bovine
Procedure: Cells were allowed to reach 80% confluency in 12-well plates. […] At various time points, plates were taken out of the incubator and kept on ice. Cell monolayers were first washed once with ice-cold PBS before lysis with 250 μl of Pierce RIPA buffer (ThermoFisher Scientific, Rockford, IL) or use 50 mM Tris-HCl (pH 7.6), 150 mM NaCl, 10% Glycerol, 1% NP-40 containing protease/Phosphatase inhibitor cocktail (100×) (Cell signaling, #5872). Lysates were collected and mixed with 4×Bolt LDS Sample Buffer (Novex, Carlsbad, CA) in the presence of Halt protease inhibitors and phosphatase inhibitor cocktail (ThermoFisher scientific, #NP0007). The samples were subjected to SDS-PAGE (Bolt 4-12% Bis-Tris Plus, Invitrogen) using Bolt MES SDS running buffer or NuPAGE 3-8% Tris-Acetate gel using Tris-Acetate SDS running buffer (Novex). HUVECs (passage 6-8) were plated in EBM-2 basal medium (Lonza) with 0.2% FBS. […] Equal amounts of protein lysates were analyzed by SDS-PAGE and blotted with the indicated antibodies. Proteins were transferred using Tris-Glycine buffer with 20% Methanol (Proteonomics grade) (Apex BioResearch Products). Membranes were first incubated with 5% milk in TBST, pH 7.6 (TEKnova, Hollister, CA), followed by blotting with primary and secondary antibodies. ECL anti-rabbit IgG, horseradish peroxidase linked whole antibody from donkey or sheep anti-mouse were obtained from GE Healthcare (UK limited). SuperSignal West Dura Extended Duration substrate was from ThermoFisher Scientific. In some cases, the same PVDF membranes were stripped by 8-min incubation in the Restore Plus Western Blot Stripping Buffer (ThermoFisher Scientific) to show total specific protein expression, followed by second stripping for β-actin expression. BCECs were plated in 10 cm cell culture dishes 3 days prior to the cell surface protein isolation. Cells were washed three times with Dulbecco's PBS with CaCl2 and MgCl2, followed by a 30 min incubation with EZ-Link Sulfo-NHS-SS-Biotin (Pierce, Rockford, IL, USA; 0.5 mg/ml in Dulbecco) on ice. […] For cell lysis 500 […]1 of lysis buffer (2% NP-40, 1% Triton X-100, 10% glycerol, 100 uM oxidized glutathione, EDTA free protease inhibitor tablet (Roche, Mannheim, Germany) in PBS was added to the cells. Lysed cell extracts were scraped off the plates and transferred to an Eppendorf tube followed by incubation on ice on a shaker for 30 mins. The cell extracts were incubated with 30 U of DNase (22° C. 50 mins, Roche, Mannheim, Germany) and centrifuged for 20 mins (20,800×g, at 4° C.) to pellet the insoluble material. The protein concentration of the supernatants was determined. Equal amounts of protein ( 2 mg) from each extract were used for cell surface protein isolation. […]

[6] = molecular target: T1, α-mannosidase from Jack Bean (Canavalia ensiformis, UniProt C0HJB3); assay: α-mannosidase activity assay; type: biochemical
T1 construct: purchased M7257
T1 sequence (C0HJB3 whole entry): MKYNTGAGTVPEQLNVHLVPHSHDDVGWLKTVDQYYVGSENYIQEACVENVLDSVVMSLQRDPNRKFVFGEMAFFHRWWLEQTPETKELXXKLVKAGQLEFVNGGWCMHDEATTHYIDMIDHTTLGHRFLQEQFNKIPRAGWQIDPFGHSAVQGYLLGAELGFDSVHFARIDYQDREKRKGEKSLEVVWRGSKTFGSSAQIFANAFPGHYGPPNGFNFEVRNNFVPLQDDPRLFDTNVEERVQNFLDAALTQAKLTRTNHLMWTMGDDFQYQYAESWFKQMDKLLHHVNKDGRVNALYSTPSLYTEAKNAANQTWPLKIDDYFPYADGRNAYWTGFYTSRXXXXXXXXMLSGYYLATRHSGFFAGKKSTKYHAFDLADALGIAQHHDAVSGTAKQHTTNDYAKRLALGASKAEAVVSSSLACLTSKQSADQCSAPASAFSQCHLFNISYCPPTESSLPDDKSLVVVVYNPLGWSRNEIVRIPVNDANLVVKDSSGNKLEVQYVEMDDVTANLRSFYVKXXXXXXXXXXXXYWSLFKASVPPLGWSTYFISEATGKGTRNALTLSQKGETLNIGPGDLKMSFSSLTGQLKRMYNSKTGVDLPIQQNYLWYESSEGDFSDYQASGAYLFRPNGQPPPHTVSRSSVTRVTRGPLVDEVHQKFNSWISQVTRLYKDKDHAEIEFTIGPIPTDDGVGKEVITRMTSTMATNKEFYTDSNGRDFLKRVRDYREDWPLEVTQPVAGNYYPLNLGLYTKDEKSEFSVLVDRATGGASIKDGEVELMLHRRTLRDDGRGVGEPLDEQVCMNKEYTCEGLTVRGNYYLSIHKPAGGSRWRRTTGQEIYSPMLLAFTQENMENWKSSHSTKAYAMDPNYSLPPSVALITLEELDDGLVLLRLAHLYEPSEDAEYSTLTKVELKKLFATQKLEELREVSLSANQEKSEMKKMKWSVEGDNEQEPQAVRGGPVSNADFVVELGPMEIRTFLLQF
Procedure: a-mannosidase activity was measured using substrate p-nitrophenyl α-mannopyranoside (1 mM). Enzyme from Jack Bean ([MUT]) (final concentration of 0.077 U) was incubated at 37° C. in a final volume of 50 μl of 50 mM potassium phosphate buffer, pH 7.5. α-glucosidase was assayed with substrate p-nitrophenyl α-glucoside (7 mM). […] The incubation was stopped by addition of an equal volume of acid-based stop solution (R&D systems, 895032).

## N[C@H](C=O)[C@@H](O)[C@H](O)[C@H](O)CO [ManN, 2-Amino-2-deoxy-D-mannose]
[1]
  growth of U87MG: did not promote growth
[2]
  proliferation of bovine pituitary cells: no increases in proliferation
[3]
  growth of A673: did not promote growth
[4]
  growth of 4T1: did not promote growth
[4]; at 5 mM
  toxicity on 4T1 cells: significant toxicity
[5]
  amount of VEGFR2 on cell surface (biotinylation): no changes in the amount of VEGFR2 on cell surface
[5]; 4 hours (gene) or 24 hours (protein)
  transcription of VEGF, VEGFR2, GLUT1 & 4 and total VEGFR2 protein expression: neither transcription of VEGF, VEGFR2 and GLUT1 & 4 nor total VEGFR2 protein expression was significantly changed
[5]; ManN pre-treated cells
  VEGFR2 phosphorylation in response to VEGF: decreased
[5]; after ManN addition
  ligand-independent VEGFR2 activation: No ligand-independent VEGFR2 activation occurred
[6]
  concentration showing inhibitory activity: 400 µM
